Key:
AgRP neurons [1] = experiment: Patch-clamp electrophysiology of fluorescently labeled AgRP neurons in brain slices; format: cell-based, mice
Description: 300-μm coronal ARH slices were prepared from 6- to 8-week-old mice using ice cold sucrose-based cutting solution (adjusted to pH 7.3) containing (in mM): 10 NaCl, 25 NaHCO3, 195 sucrose, 5 glucose, 2.5 KCl, 1.25 NaH2PO4, 2 Na pyruvate, 0.5 CaCl2, and 7 MgCl2 bubbled continuously with 95% O2 and 5% CO2. Slices were allowed to recover at least 45 minutes at room temperature in recording solution (adjusted to pH 7.3) containing (in mM): 125 NaCl, 5 glucose, 25 NaHCO3, 2.5 KCl, 1.25 NaH2PO4, 2 CaCl2, and 1 MgCl2 bubbled continuously with 95% O2 and 5% CO2 before transferring them to a perfusion chamber for recording. Patch pipettes were pulled to resistances of 7-9 MΩ and filled them with solution (adjusted to pH 7.3) containing 128 K gluconate, 10 KCl, 10 HEPES, 0.1 EGTA, 2 MgCl2, 0.3 Na-GTP, and 3 Mg-ATP. Cells were selected using an upright microscope fitted with fluorescence optics (Nikon) and patched under IR-DIC optics. Electrical access was assessed in the whole-cell recording mode using a small-voltage step-pulse before and at the end of the current clamp recordings. Recordings were discarded in which the series resistance had been >15 MΩ. Current clamp recordings were acquired with no current injection using a MultiClamp 700B amplifier and Clampex data acquisition software (Axon Instruments). Action potential (AP) firing frequency, membrane potential, and AP amplitude using MiniAnalysis (Synaptosoft) were recorded at room temperature and analyzed. Electrophysiological recording to measure mEPSC and mIPSC in brain slices was performed as previously described (Pinto et al., 2004).
The electrophysiological properties of AgRP neurons identified using fluorescent reporters in brain slices from wild-type and Agrp-Foxo1^−/− mice (FIG. 5D-F) were studied. […] Furthermore, insulin suppressed the firing frequency of wild-type cells to ˜35% of basal level, a nearly three-fold reduction. Despite the lower basal firing frequency, insulin further suppressed the firing frequency of knockout neurons, with a 100-fold reduction. Insulin caused a similar reduction in membrane potential in wild-type and knockout cells (˜−20 mV).
Given the favorable metabolic profile of Agrp-Foxo1^−/− mice, experiments were designed to identify FoxO1 targets that mediate its effects and are readily targetable by chemical means. […] Next, Gpr17 regulation in ARH punch biopsies from fasted and refed mice was examined. […] To investigate the function of Gpr17 in AgRP neurons, the electrophysiological properties of fluorescently labeled AgRP neurons in response to the Gpr17 antagonist, cangrelor were tested. […] Therefore, inhibition of Gpr17 can affect the electrical activity of AgRP neurons in an insulin-mimetic fashion, supporting our hypothesis.

mice [2] = experiment: Food intake after ICV (3rd ventricle) injection; format: in vivo
Text: ELISA for leptin, insulin, and glucagon measurements (Millipore), and colorimetric assays for plasma free fatty acids and glycerol (Wako) were used.
The effect of delivering cangrelor into the 3rd ventricle of mice on food intake was studied.

AgRP neurons [3] = experiment: Immunohistochemistry of pSTAT3, pS6 and pAkt in AgRP or POMC neurons after delivery into the 3rd ventricle
Description: Stereotactic manipulations in 3-4 month-old C57BL/6 mice were performed. Cannulae were placed and allowed 1 week for recovery (−1.8 mm anterior and 0 mm lateral to bregma and 5.3 mm below the skull surface). Correct positioning of the cannulae was verified by monitoring drinking activity after angiotensin injection. […] For immunohistochemistry studies, mice 4-5 hr were perfused after refeeding.
To test whether Gpr17 function affects ARH hormonal signaling in vivo, cangrelor was delivered directly into the 3rd ventricle of mice after an overnight fast and the co-localization of pSTAT3, pS6, and pAkt was determined in either POMC or AgRP neurons, identified by fluorescent reporter, after refeeding.

mice [4] = experiment: Glucose tolerance test / blood glucose after Gpr17 agonist administration; format: in vivo; conditions: 6 hr fast, test 20 minutes after administration (FIG. 12C)
Description: FIG. 12A-12D. […] (A) Satiated mice were injected with saline or Gpr17 agonist LTD4 (n=5-7). Food intake was monitored for the following time course. (B) Locomotor activity counts of satiated mice during daytime within 1.5 hours following administration of Gpr17 agonist LTD4 (n=6). (C) After fasting for 6 hrs, saline or LTD4 were administered to the mice (n=6-7). Glucose tolerance test was performed 20 minutes after the administration. […] Glucose was measured before or 20 minutes after the administration.

Neuro2A (N2A) cells = experiment: Insulin signaling (pAkt western blot) in wild type N2A cells treated with or without cangrelor; format: cell-based; conditions: serum starved overnight, stimulated with insulin
Description: FIG. 14. Neuro2A (N2A) cells are a suitable model for studying the molecular mechanisms of Gpr17 signaling. Wild type N2A cells (treated with or without cangrelor) were serum starved overnight and stimulated with insulin. Insulin signaling activity was gauged by measuring pAkt by western blot. N2A cells express minimal endogenous Gpr17.
More experiments were conducted to study the in vivo regulation of Gpr17 expression by FoxO1. It was discovered that Knocking out FoxO using Synapsin-Cre in mediobasal hypothalamus (MBH) caused a concomitant reduction of Gpr17, further showing that Gpr17 is the endogenous target of FoxO. FIG. 13, panel A. Moreover, Gpr17 expression was elevated in the hippocampus of insulin resistant diabetic GIRKO mice. FIG. 13, panel B. Further studies of Gpr17 expression showing that it contributes to the causality of diabetes, were conducted using Neuro2A (N2A) cells that express minimal endogenous Gpr17. Wild type N2A cells (treated with or without cangrelor) were serum starved overnight and then stimulated with insulin. Insulin signaling activity was gauged by measuring pAkt by western blot. […] FIG. 14.

[5] = in vivo; cited from earlier work
platelet = conditions: 4 μg/kg per minute IV, in approximately 70% of patients after 15 min; cited from earlier work
mouse Gpr17 = experiment: siRNA knockdown of Gpr17 in Gpr17-mCherry stable line (diminished mCherry signal); format: cell-based; conditions: Gpr17-mCherry stable line transfected with RNAi construct
Text: Seven siRNA sequences were designed based on the gene sequence of mouse Gpr17. DNA oligomers were ligated into a MSCV-P2Gm vector and verified by sequencing. The correct clones were used for further evaluation of the effectiveness of each RNAi construct. Gpr17-mCherry-stable line was transfected with each of the seven constructs. The effectiveness of RNAi was scored by the diminished mCherry signal in cells. […] The resultant adenovirus expresses RNAi upon Cre-dependent recombination. Seven oligomer sequences to generate Gpr17 RNAi. The 7 oligomers were ligated into the vector (MSCV-P2Gm) to generate RNAi specific for Gpr17 gene. The sequences are provided as following. The common adaptor sequence is provided, and the targeting siRNA (specific for mouse Gpr17) sequence is highlighted with underline.
In another series of experiments, siRNA sequences that knock down Gpr17 were identified. Seven candidate siRNA sequences conjugated to Gfp (green) and directed against mouse Gpr17 were cloned into a vector and their ability to inhibit Gpr17 expression was determined in Gpr17-mCherry stable line by their effectiveness in diminishing red fluorescence. Seven candidate sequences against mouse Gpr17 were cloned into vector. The resultant adenovirus expresses RNAi upon Cre-dependent recombination. Various degrees of knockdown of Gpr17 were achieved using siRNA.

[6] = insulin, wild-type AgRP neurons
[7] = delivered into 3rd ventricle after overnight fast, determined after refeeding
[8] = 3rd ventricle, overnight fast, refeeding, in a subset of AgRP neurons
[9] = cangrelor treatment (90 nM), same neurons before and after

Molecule: insulin: anorexigenic hormone applied to AgRP neurons in brain slices
- fold reduction of firing frequency (AgRP neurons [1]; insulin, Agrp-Foxo1−/− (knockout) AgRP neurons): 100 fold
- firing frequency relative to basal level (AgRP neurons [1]; [6]): ~35 % of basal level
- fold reduction of firing frequency (AgRP neurons [1]; [6]): three
- reduction in membrane potential (AgRP neurons [1]; insulin, wild-type and knockout cells): ~−20 mV

Molecule: CCCCC/C=C\C\C=C/C=C/C=C/[C@@H](SC[C@H](N)C(=O)NCC(=O)O)[C@@H](O)CCCC(=O)O [LTD4]
- food intake (mice [2]; satiated mice injected with saline or LTD4 (FIG. 12A)): increases food intake
- pSTAT3 content in AgRP neurons (AgRP neurons [3]; [7]): decreased
- glucose tolerance test / neuronal regulation of glucose homeostasis (mice [4]): impairs neuronal regulation of glucose homeostasis

Molecule: CSCCNc1nc(SCCC(F)(F)F)nc2c1ncn2[C@@H]1O[C@H](COP(=O)(O)OP(=O)(O)C(Cl)(Cl)P(=O)(O)O)[C@@H](O)[C@H]1O [cangrelor, [dichloro-[[[(2R,3S,4R,5R)-3,4-dihydroxy-5-[6-(2-methylsulfanylethylamino)-2-(3,3,3-trifluoropropylsulfanyl)purin-9-yl]oxolan-2-yl]methoxy-hydroxyphosphoryl]oxy-hydroxyphosphoryl]methyl]phosphonic acid]
- insulin signaling (pAkt by western blot) (Neuro2A (N2A) cells): minimal effect
- plasma half-life [5]: three to six
- food intake during refeeding (mice [2]; Agrp-Foxo1−/− mice, overnight fast, cangrelor into 3rd ventricle): completely unaffected
- pAkt and pS6 in POMC neurons (AgRP neurons [3]; 3rd ventricle, overnight fast, refeeding): without effecting detectable changes
- pAkt in AgRP neurons (AgRP neurons [3]; [8]): increased
- pS6 in AgRP neurons (AgRP neurons [3]; [8]): increased
- pSTAT3 content in AgRP neurons (AgRP neurons [3]; [7]): specifically and dramatically increased
- pSTAT3 content in POMC neurons (AgRP neurons [3]; [7]): not in POMC neurons
- platelet inhibition (platelet): 100%
- firing frequency of AgRP neurons (AgRP neurons [1]; [9]): significantly reduced
- membrane potential of AgRP neurons (AgRP neurons [1]; [9]): lower

B1: SEQ ID NO. 7: oligomer ligated into MSCV-P2Gm vector to generate RNAi specific for mouse Gpr17 (nucleic acid)
DNA: TGCTGTTGACAGTGAGCGCCCGGATCACCTCCTGCCTCACTAGTGAAGCCACAGATGTAGTGAGGCAGGAGGTGATCCGGTTGCCTACTGCCTCGGA
- effectiveness in knocking down Gpr17 expression (diminishing red fluorescence) (mouse Gpr17): most effective

B2: SEQ ID NO. 6: oligomer ligated into MSCV-P2Gm vector to generate RNAi specific for mouse Gpr17 (nucleic acid)
DNA: TGCTGTTGACAGTGAGCGATGGCTTCCTCTTCTATCTGAATAGTGAAGCCACAGATGTATTCAGATAGAAGAGGAAGCCAGTGCCTACTGCCTCGGA
- effectiveness in knocking down Gpr17 expression (diminishing red fluorescence) (mouse Gpr17): most effective

B3: SEQ ID NO. 9: oligomer ligated into MSCV-P2Gm vector to generate RNAi specific for mouse Gpr17 (nucleic acid)
DNA: TGCTGTTGACAGTGAGCGAAACTGTACCGGGAGAAGGCCTTAGTGAAGCCACAGATGTAAGGCCTTC
- effectiveness in knocking down Gpr17 expression (diminishing red fluorescence) (mouse Gpr17): most effective

— US9309514B2, “G protein-coupled purinergic receptor Gpr17 mediates orexigenic effects of FoxO1 in AgRP neurons” (THE TRUSTEES OF COLUMBIA UNIVERSITY IN THE CITY OF NEW YORK, priority 2012, dated 2016)
